Biological target: PIKFYVE (Homo sapiens, UniProt Q9Y2I7)
Experiment: PIKFYVE assay (luciferase ADP-Glo kinase assay, Promega)
Format: biochemical
Conditions: Table 2
Procedure: The activity of Compounds 1-20 was measured using a PIKFYVE assay (luciferase ADP-Glo kinase assay available from Promega Corp. of Madison, WI).
The activity of Compounds 39-90 was also measured using a PIKFYVE assay (luciferase ADP-Glo kinase assay available from Promega Corp. of Madison, WI).

PIKFYVE, sequence (Q9Y2I7 whole entry): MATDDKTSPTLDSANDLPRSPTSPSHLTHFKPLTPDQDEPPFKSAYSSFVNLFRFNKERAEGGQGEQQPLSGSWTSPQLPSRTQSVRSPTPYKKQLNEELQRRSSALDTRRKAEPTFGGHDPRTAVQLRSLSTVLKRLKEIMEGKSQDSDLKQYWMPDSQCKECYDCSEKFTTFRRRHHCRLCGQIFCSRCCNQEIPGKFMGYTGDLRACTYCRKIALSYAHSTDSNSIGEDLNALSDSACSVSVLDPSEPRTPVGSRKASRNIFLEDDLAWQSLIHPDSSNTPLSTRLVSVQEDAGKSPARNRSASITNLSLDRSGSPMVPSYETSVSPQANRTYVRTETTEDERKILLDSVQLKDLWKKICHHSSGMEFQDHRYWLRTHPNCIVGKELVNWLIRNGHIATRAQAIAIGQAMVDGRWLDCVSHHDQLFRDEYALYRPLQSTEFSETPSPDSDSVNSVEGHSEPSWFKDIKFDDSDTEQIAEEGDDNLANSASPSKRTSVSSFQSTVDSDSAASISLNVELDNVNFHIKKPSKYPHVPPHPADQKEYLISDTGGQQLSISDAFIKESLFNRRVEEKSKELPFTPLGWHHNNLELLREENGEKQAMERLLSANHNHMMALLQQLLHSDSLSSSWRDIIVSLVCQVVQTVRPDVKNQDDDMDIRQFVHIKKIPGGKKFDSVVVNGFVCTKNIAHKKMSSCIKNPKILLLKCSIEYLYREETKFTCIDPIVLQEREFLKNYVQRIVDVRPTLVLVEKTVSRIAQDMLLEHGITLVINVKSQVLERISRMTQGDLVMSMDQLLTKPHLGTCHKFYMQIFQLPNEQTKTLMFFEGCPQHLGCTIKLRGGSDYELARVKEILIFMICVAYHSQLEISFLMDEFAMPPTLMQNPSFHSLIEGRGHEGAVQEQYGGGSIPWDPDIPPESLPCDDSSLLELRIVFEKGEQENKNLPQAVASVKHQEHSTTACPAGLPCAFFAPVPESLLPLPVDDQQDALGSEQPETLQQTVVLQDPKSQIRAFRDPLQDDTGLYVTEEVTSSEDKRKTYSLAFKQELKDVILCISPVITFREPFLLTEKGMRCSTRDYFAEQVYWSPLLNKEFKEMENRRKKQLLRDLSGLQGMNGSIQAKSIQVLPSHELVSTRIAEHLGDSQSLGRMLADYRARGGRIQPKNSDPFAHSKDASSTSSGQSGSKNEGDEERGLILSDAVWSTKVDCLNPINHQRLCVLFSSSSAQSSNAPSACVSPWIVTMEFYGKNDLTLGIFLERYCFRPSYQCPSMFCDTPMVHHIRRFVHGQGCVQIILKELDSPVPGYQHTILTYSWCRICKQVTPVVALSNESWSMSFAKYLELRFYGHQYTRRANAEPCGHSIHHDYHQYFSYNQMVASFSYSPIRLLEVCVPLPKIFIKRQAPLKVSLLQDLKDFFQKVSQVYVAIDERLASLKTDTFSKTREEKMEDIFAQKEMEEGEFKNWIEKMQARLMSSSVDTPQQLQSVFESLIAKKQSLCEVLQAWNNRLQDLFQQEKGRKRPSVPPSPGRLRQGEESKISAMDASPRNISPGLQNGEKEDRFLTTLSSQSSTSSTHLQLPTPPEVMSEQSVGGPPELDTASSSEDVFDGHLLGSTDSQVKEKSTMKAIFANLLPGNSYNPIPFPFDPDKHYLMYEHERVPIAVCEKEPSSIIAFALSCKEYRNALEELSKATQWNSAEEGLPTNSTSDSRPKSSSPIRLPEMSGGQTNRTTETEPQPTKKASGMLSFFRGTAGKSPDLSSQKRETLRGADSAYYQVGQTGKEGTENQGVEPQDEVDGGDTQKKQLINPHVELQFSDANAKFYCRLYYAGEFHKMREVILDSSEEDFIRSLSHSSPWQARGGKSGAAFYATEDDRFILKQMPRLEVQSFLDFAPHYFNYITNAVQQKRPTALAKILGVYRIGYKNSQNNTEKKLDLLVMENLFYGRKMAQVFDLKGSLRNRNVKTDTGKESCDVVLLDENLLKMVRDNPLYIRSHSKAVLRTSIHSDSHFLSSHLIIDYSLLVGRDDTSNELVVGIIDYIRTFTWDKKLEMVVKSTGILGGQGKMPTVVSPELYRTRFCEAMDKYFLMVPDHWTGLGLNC

Row | Compound | IC50
1 | Cc1cccc(-c2ccn(-c3nc(NCCc4cnccn4)cc(N4CCOCC4)n3)n2)c1 [Compound 47] | < 50 nM
2 | COCc1nc(N2CCOCC2)cc(-n2ccc(-c3ccccc3)n2)n1 [Compound 69] | < 50 nM
3 | CCOC(=O)c1ccn(-c2cc(N3CCOCC3)nc(OCCc3ccn(C)n3)n2)n1 [Compound 70] | < 50 nM
4 | Cc1cccc(-c2ccn(-c3cc(N4CCOCC4)nc(OC[C@H](O)c4ccccc4)n3)n2)c1 [Compound 58] | < 5 nM
5 | OCc1nc(N2CCOCC2)cc(-n2ccc(-c3ccccc3)n2)n1 [Compound 84] | < 50 nM
6 | CN(C)Cc1cc(-c2ccccc2)nn1-c1cc(N2CCOCC2)nc(OCCc2cnn(C)c2)n1 [Compound 75] | < 50 nM
7 | Cc1cccc(-c2ccn(-c3cc(N4CCOCC4)nc(N4CCCC4=O)n3)n2)c1 [Compound 61] | < 50 nM
8 | Cc1cccc(-c2ccn(-c3cc(N4CC[C@H]5OCC[C@H]54)nc(C(O)CO)n3)n2)c1 (stereo partly shown) [Compound 48] | < 500 nM
9 | COc1nc(N2CCOCC2)c(C)c(-n2ccc(-c3cccc(C)c3)n2)n1 [Compound 83] | < 500 nM
10 | OCC(O)COc1nc(N2CCOCC2)cc(-n2ncc3ccccc32)n1 (stereo not shown) [Compound 53] | < 500 nM
11 | OCC(O)COc1nc(N2CCOCC2)cc(-n2cc3ccccc3n2)n1 (stereo not shown) [Compound 52] | < 500 nM
12 | Cc1cccc(-c2ccn(-c3cc(N4CCOCC4)nc(C(F)(F)F)n3)n2)c1 [Compound 82] | < 50 nM
13 | Cc1cccc(-c2ccn(-c3cc(N4CCOCC4)nc(OC[C@@H](O)c4ccccc4)n3)n2)c1 [Compound 57] | < 5 nM
14 | COCC(O)c1nc(N2CCOCC2)cc(-n2ccc(-c3cccc(C)c3)n2)n1 (stereo not shown) [Compound 49] | < 50 nM
15 | CC(C)(C)c1ccn(-c2cc(N3CCOCC3)nc(OCC(O)CO)n2)n1 (stereo not shown) [Compound 51] | < 10000 nM
16 | COCc1cc(-c2ccccc2)n(-c2cc(N3CCOCC3)nc(OCCc3cnn(C)c3)n2)n1 [Compound 77] | < 50 nM
17 | c1ccc(-c2cn(-c3cc(N4CCOCC4)nc(OCCc4ccccn4)n3)cn2)cc1 [Compound 39] | < 10000 nM
18 | Cc1cccc(-c2ccn(-c3cc(N4CCOCC4)nc(Cc4ccccc4)n3)n2)c1 [Compound 42] | < 500 nM
19 | COc1nc(N2CCOCC2)cc(-n2ccc(-c3cccc(C)c3)n2)n1 [Compound 59] | < 50 nM
20 | Cc1cn(-c2cc(N3CCOCC3)nc(OCCc3cnn(C)c3)n2)nc1-c1ccccc1 [Compound 63] | < 500 nM
21 | Fc1ccc(-c2cnn(-c3cc(N4CC[C@H]5OCC[C@H]54)nc(CCCc4ccccn4)n3)c2)cc1 [Compound 41] | < 10000 nM
22 | c1cc(-c2cc(N3CCOCC3)nc(OCC3CCCO3)n2)n[nH]1 (stereo not shown) [Compound 45] | < 500 nM
23 | COc1cc(N2CCOCC2)nc(-n2ccc(-c3cccc(C)c3)n2)n1 [Compound 87] | < 500 nM
24 | Clc1ccc(-c2ccn(-c3cc(N4CCOCC4)nc(OCCc4ccccn4)n3)n2)cc1 [Compound 40] | < 500 nM
25 | COC(c1ccccc1)c1nc(N2CCOCC2)cc(-n2ccc(-c3ccccc3)n2)n1 (stereo not shown) [Compound 78] | < 50 nM
26 | Cc1cccc(-c2ccn(-c3nc(NCCc4ccccn4)cc(N4CCOCC4)n3)n2)c1 [Compound 46] | < 50 nM
27 | Cc1cccc(-c2ccn(-c3cc(N4CCOCC4)ncn3)n2)c1 [Compound 60] | < 500 nM
28 | CNc1nc(N2CCOCC2)cc(-n2nc(-c3ccccc3)cc2C)n1 [Compound 85] | < 500 nM
